Assay results: US8202856B2 (Merck Serono SA, priority 2007, dated 2012)
Structures can show the parent of a compound that is named as a salt.

Biological target: S1P1 receptor (Homo sapiens, UniProt P21453)
Assay: 35S-GTPγS binding, membranes from CHO cells expressing S1P1
Assay type: biochemical
Conditions: CHO cell membranes expressing S1P1
Method: Receptor binding assay: Membranes were prepared from CHO cells expressing S1P1 or S1P3 for use in ligand and 35S-GTPTS binding studies. Cells were suspended in 50 mM TRIS, pH 7.4, 2 mM EDTA, 250 mM Sucrose (buffer A) and 1× Complete protease inhibitor cocktail (Roche), and disrupted at 4° C. by nitrogen decompression using a cell disruption bomb (Parr Instrument). Following centrifugation at 1000 RPM for 10 min at 4° C., the supernatant was suspended in buffer A and centrifuged again at 19000 RPM for 60 min at 4° C. The pellet was then suspended in 10 mM HEPES, pH 7.4, 1 mM EDTA, 250 mM Sucrose (Buffer B), and 1× Complete EDTA-free protease inhibitor cocktail and homogenized using a potter. Membranes were flash frozen in liquid nitrogen and stored at −80° C. [33P]sphingosine 1-phosphate (3000 Ci/mmol; American Radiolabeled Chemicals, Inc.) was added to test compounds in DMSO. Membranes and WGA SPA beads (GE Healthcare) were added to give a final volume of 100 μl in 96-well plates with assay concentrations of […] [33P]sphingosine 1-phosphate (respectively for S1P1 or S1P3), 50 mM HEPES, pH 7.5, 5 mM MgCl2, 100 mM NaCl, 0.4% fatty acid-free BSA, 1-5 μg/well of proteins and 100 μg/well of WGA SPA beads. Binding was performed for 60 min at room temperature on a shaker and bound radioactivity was measured on a PerkinElmer 1450 MicroBeta counter. Specific binding was calculated by subtracting remaining radioactivity in the presence of 1000-fold excess of unlabeled S1P. Binding data were analyzed using the GraphPad Prism program.
Measurements of ^35S-GTPγS Binding: Membranes (1 to 10 μg protein) prepared as described above, were incubated in 96-well Scintiplates (PerkinElmer) with test compounds diluted in DMSO, in 180 μl of 20 mM HEPES, pH 7.4, 10 mM MgCl2, 2 μg/well Saponin, 0.2% fatty acid free BSA (Assay buffer), 140 mM NaCl and 1.7 μM GDP. The assay was initiated with the addition of 20 μl of 1.5 nM [35S]-GTPγS (1100 Ci/mmol; GE Healthcare) in assay buffer. After 60 min incubation at 30° C. on a shaker, plates were centrifuged for 10 min at 2000 RPM. Supernatant was discarded and membrane bound radioactivity was measured on a PerkinElmer 1450 MicroBeta counter. Triplicate samples were averaged and expressed as response relative to S1P activation in absence of compound (n=2).

S1P1 receptor, sequence (P21453 whole entry): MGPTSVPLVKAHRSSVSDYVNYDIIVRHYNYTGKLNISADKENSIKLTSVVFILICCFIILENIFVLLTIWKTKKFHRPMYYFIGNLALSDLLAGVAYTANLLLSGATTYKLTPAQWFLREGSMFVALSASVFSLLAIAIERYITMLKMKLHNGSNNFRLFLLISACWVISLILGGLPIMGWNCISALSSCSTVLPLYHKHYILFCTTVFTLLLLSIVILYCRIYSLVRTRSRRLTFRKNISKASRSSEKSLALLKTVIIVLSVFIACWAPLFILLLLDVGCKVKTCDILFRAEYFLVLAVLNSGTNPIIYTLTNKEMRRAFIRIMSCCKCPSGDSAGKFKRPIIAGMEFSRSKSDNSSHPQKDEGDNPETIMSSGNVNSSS

| SMILES | EC50 |
| --- | --- |
| Fc1ccccc1-n1nnc(-c2nc(-c3ccccc3)no2)c1-c1ccncc1 [Example 95, 4-[1-(2-fluorophenyl)-4-(3-phenyl-1,2,4-oxadiazol-5-yl)-1H-1,2,3-triazol-5-yl]pyridine] | 13 nM |
| Fc1ccccc1-n1nnc(-c2nc(-c3ccc(Cn4cccn4)cc3)no2)c1-c1ccncc1 [Example 171, 4-(1-(2-fluorophenyl)-4-{3-[4-(1H-pyrazol-1-ylmethyl)phenyl]-1,2,4-oxadiazol-5-yl}-1H-1,2,3-triazol-5-yl)pyridine] | 11 nM |
| Fc1ccccc1-c1noc(-c2nnn(-c3ccccc3F)c2C2CC2)n1 [Example 85, 5-[5-cyclopropyl-1-(2-fluorophenyl)-1H-1,2,3-triazol-4-yl]-3-(2-fluorophenyl)-1,2,4-oxadiazole] | 451 nM |
| Fc1ccccc1-n1nnc(-c2nc(-c3ccc(C4OCCO4)cc3)no2)c1-c1ccncc1 [Example 110, 4-[4-{3-[4-(1,3-dioxolan-2-yl)phenyl]-1,2,4-oxadiazol-5-yl}-1-(2-fluorophenyl)-1H-1,2,3-triazol-5-yl]pyridine] | 136 nM |
| OCc1ccc(-c2noc(-c3nnn(-c4ccccc4F)c3-c3ccncc3)n2)cc1 [Example 108, (4-{5-[1-(2-fluorophenyl)-5-pyridin-4-yl-1H-1,2,3-triazol-4-yl]-1,2,4-oxadiazol-3-yl}phenyl)methanol] | 21 nM |
| CC(=O)Nc1ccc(-c2noc(-c3nnn(-c4ccccc4F)c3-c3ccncc3)n2)cn1 [Example 145, N-(5-{5-[1-(2-fluorophenyl)-5-pyridin-4-yl-1H-1,2,3-triazol-4-yl]-1,2,4-oxadiazol-3-yl}pyridin-2-yl)acetamide] | 230 nM |
| Fc1ccccc1-c1noc(-c2nnn(-c3ccccc3F)c2C2CCCO2)n1 (centres unmarked) [Example 53, 3-(2-fluorophenyl)-5-[1-(2-fluorophenyl)-5-(tetrahydrofuran-2-yl)-1H-1,2,3-triazol-4-yl]-1,2,4-oxadiazole] | 211 nM |
| Fc1ccccc1-n1nnc(-c2nc(-c3ccc(CNC4CC4)cc3)no2)c1-c1ccncc1 [Example 164, N-(4-{5-[1-2-fluorophenyl)-5-pyridin-4-yl-1H-1,2,3-triazol-4-yl]-1,2,4-oxadiazol-3-yl}benzyl)cyclopropanamine formate] | 27 nM |
| Fc1ccccc1-n1nnc(-c2nc(-c3cccc(Cn4ccnc4)c3)no2)c1-c1ccncc1 [Example 82, 4-(1-(2-fluorophenyl)-4-{3-[3-(1H-imidazol-1-ylmethyl)phenyl]-1,2,4-oxadiazol-5-yl}-1H-1,2,3-triazol-5-yl)pyridine] | 176 nM |
| CC(C)(NCc1ccc(-c2noc(-c3nnn(-c4ccccc4F)c3-c3ccncc3)n2)cc1)C(=O)O [Example 174, N-(4-{5-[1-(2-fluorophenyl)-5-pyridin-4-yl-1H-1,2,3-triazol-4-yl]-1,2,4-oxadiazol-3-yl}benzyl)-2-methylalanine] | 162 nM |
| CC(=O)NC1CCN(Cc2ccc(-c3noc(-c4nnn(-c5ccccc5F)c4-c4ccncc4)n3)cc2)CC1 [Example 137, N-[1-(4-{5-[1-(2-fluorophenyl)-5-pyridin-4-yl-1H-1,2,3-triazol-4-yl]-1,2,4-oxadiazol-3-yl}benzyl)piperidin-4-yl]acetamide] | 223 nM |
| OCCNCc1ccc(-c2noc(-c3nnn(-c4ccccc4F)c3-c3ccncc3)n2)cc1 [Example 136, 2-[(4-{5-[1-(2-fluorophenyl)-5-pyridin-4-yl-1H-1,2,3-triazol-4-yl]-1,2,4-oxadiazol-3-yl}benzyl)amino]ethanol] | 31 nM |
| COCc1c(-c2nc(-c3ccc(Cn4cncn4)cc3)no2)nnn1-c1ccccc1F [Example 176, 5-[1-(2-fluorophenyl)-5-(methoxymethyl)-1H-1,2,3-triazol-4-yl]-3-[4-(1H-1,2,4-triazol-1-ylmethyl)phenyl]-1,2,4-oxadiazole] | 105 nM |
| Fc1ccccc1-n1nnc(-c2nc(-c3ccncc3)no2)c1-c1ccccn1 [Example 66, 2-[1-(2-fluorophenyl)-4-(3-pyridin-4-yl-1,2,4-oxadiazol-5-yl)-1H-1,2,3-triazol-5-yl]pyridine] | 26 nM |
| O=C(O)[C@H]1CC[C@H](NCc2ccc(-c3noc(-c4nnn(-c5ccccc5F)c4-c4ccncc4)n3)cc2)CC1 [Example 168, (trans)-4-(4-(5-(1-(2-fluorophenyl)-5-(pyridin-4-yl)-1H-1,2,3-triazol-4-yl)-1,2,4-oxadiazol-3-yl)benzylamino)cyclohexanecarboxylic acid] | 16 nM |
| Fc1ccccc1-c1noc(-c2nnn(-c3ccccc3F)c2C2CCCC2)n1 [Example 78, 5-[5-cyclopentyl-1-(2-fluorophenyl)-1H-1,2,3-triazol-4-yl]-3-(2-fluorophenyl)-1,2,4-oxadiazole] | 397 nM |
| Fc1ccccc1-n1nnc(-c2nc(-c3ccc4c(c3)CNCC4)no2)c1-c1ccncc1 [Example 105, 7-{5-[1-(2-fluorophenyl)-5-pyridin-4-yl-1H-1,2,3-triazol-4-yl]-1,2,4-oxadiazol-3-yl}-1,2,3,4-tetrahydroisoquinoline] | 26 nM |
| Fc1ccccc1-n1nnc(-c2nc(-c3ccc4c(c3)NCC4)no2)c1-c1ccncc1 [Example 157, 6-{5-[1-(2-fluorophenyl)-5-pyridin-4-yl-1H-1,2,3-triazol-4-yl]-1,2,4-oxadiazol-3-yl}indoline] | 218 nM |
| Fc1ccccc1-n1nnc(-c2nc(-c3ccc(CN4CC[C@@H](F)C4)cc3)no2)c1-c1ccncc1 [Example 160, 4-{1-(2-fluorophenyl)-4-[3-(4-{[(3R)-3-fluoropyrrolidin-1-yl]methyl}phenyl)-1,2,4-oxadiazol-5-yl]-1H-1,2,3-triazol-5-yl}pyridine] | 71 nM |
| CC(=O)N1CCc2cc(-c3noc(-c4nnn(-c5ccccc5F)c4-c4ccncc4)n3)ccc21 [Example 153, 1-acetyl-5-{5-[1-(2-fluorophenyl)-5-pyridin-4-yl-1H-1,2,3-triazol-4-yl]-1,2,4-oxadiazol-3-yl}indoline] | 90 nM |
| Oc1ccc(-c2noc(-c3nnn(-c4ccccc4F)c3-c3ccncc3)n2)cc1 [Example 64, 4-{5-[1-(2-fluorophenyl)-5-pyridin-4-yl-1H-1,2,3-triazol-4-yl]-1,2,4-oxadiazol-3-yl}phenol] | 8 nM |
| Fc1ccccc1-n1nnc(-c2nc(-c3ccc(CN4CCOCC4)cc3)no2)c1-c1ccncc1 [Example 98, 4-(4-{5-[1-(2-fluorophenyl)-5-pyridin-4-yl-1H-1,2,3-triazol-4-yl]-1,2,4-oxadiazol-3-yl}benzyl)morpholine] | 439 nM |
| COCc1c(-c2nc(-c3cccc4[nH]ccc34)no2)nnn1-c1ccccc1F [Example 90, 4-{5-[1-(2-fluorophenyl)-5-(methoxymethyl)-1H-1,2,3-triazol-4-yl]-1,2,4-oxadiazol-3-yl}-1H-indole] | 204 nM |
| OCc1cccc(-c2noc(-c3nnn(-c4ccccc4F)c3-c3ccncc3)n2)c1 [Example 111, (3-{5-[1-(2-fluorophenyl)-5-pyridin-4-yl-1H-1,2,3-triazol-4-yl]-1,2,4-oxadiazol-3-yl}phenyl)methanol] | 54 nM |
| COCc1c(-c2nc(-c3ccc(N)nc3)no2)nnn1-c1ccccc1F [Example 123, 5-{5-[1-(2-fluorophenyl)-5-(methoxymethyl)-1H-1,2,3-triazol-4-yl]-1,2,4-oxadiazol-3-yl}pyridin-2-amine] | 475 nM |
| Fc1ccccc1-n1nnc(-c2nc(-c3ccc(CN4CCC4)cc3)no2)c1-c1ccncc1 [Example 138, 4-[4-{3-[4-(azetidin-1-ylmethyl)phenyl]-1,2,4-oxadiazol-5-yl}-1-(2-fluorophenyl)-1H-1,2,3-triazol-5-yl]pyridine] | 21 nM |
| Fc1ccccc1-n1nnc(-c2nc(-c3ccc4[nH]cnc4c3)no2)c1-c1ccncc1 [Example 155, 5-{5-[1-(2-fluorophenyl)-5-pyridin-4-yl-1H-1,2,3-triazol-4-yl]-1,2,4-oxadiazol-3-yl}-1H-benzimidazole] | 251 nM |
| Fc1ccccc1-n1nnc(-c2nc(-c3ccc(C(F)(F)F)nc3)no2)c1-c1ccncc1 [Example 120, 5-{5-[1-(2-fluorophenyl)-5-pyridin-4-yl-1H-1,2,3-triazol-4-yl]-1,2,4-oxadiazol-3-yl}-2-(trifluoromethyl)pyridine] | 754 nM |
| COc1cc(CCC(=O)O)ccc1-c1noc(-c2nnn(-c3ccccc3F)c2-c2ccccc2)n1 [Example 29, 3-(4-{5-[1-(2-Fluorophenyl)-5-phenyl-1H-1,2,3-triazole-4-yl]-1,2,4-oxadiazole-3-yl}-3-methoxyphenyl)propanoic acid] | 1270 nM |
